{"source": "patent US11434246B2", "about": "“EP4 antagonists” (Eisai R&D Management Co., Ltd., priority 2015, dated 2022)"}
{"target": "EP4 (Homo sapiens, UniProt P35408)", "sequence (P35408 whole entry)": "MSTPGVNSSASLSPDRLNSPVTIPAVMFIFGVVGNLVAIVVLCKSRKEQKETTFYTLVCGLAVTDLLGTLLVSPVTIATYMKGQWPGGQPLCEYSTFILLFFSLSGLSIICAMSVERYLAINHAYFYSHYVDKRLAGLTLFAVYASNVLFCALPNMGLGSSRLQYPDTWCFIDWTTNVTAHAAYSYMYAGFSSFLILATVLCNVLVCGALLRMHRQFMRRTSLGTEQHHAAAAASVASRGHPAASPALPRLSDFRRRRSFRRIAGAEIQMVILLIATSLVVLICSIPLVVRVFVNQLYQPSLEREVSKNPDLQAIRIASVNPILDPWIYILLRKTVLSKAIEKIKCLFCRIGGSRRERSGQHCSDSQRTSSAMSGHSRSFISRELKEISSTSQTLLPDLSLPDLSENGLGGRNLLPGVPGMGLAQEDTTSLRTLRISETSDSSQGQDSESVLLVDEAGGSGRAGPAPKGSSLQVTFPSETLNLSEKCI", "test": "EP4 Antagonism by CRE-PLAP Reporter Assay (SE302 cells, PGE2-stimulated)", "type": "cell-based", "set-up": "HEK293 cells express endogenous EP4; endogenous in cells; host or cells: SE302 (HEK293 clone with CRE-PLAP reporter)", "settings": "SE302 (HEK293) cells, 3 ng/mL PGE2, overnight; single or multiple assay average values", "text": "PGE2 and [^3H]-labelled PGE2 were purchased from Cayman Chemical (Ann Arbor, Mich.) and Perkin Elmer (Waltham, Mass.), respectively. Mouse breast 4T1 cells (CRL-2539) were obtained from American Tissue Culture Collection. SE302 cell line is a clone of the HEK293 cells containing cAMP response element (CRE) promoter that when activated drives secretion of placental-like alkaline phosphatase (PLAP). HEK293 cells express endogenous EP4 and show induction of PLAP in response to PGE2 and EP4 agonists, but not EP1, 2 or 3 agonists (Chen Q, Muramoto K, Masaaki N, Ding Y, Yang H, Mackey M, Li W, Inoue Y, Ackermann K, Shrota H, Matsumoto I, Spyvee M, Schiller S, Sumida T, Gusovsky F, and Lamphier M. A novel antagonist of the prostaglandin E2 EP4 receptor inhibits Th1 differentiation and Th17 expansion and is orally active in arthritis models. British J Pharmacol, 2010, 160: 292-310). BalB/C female mice at 7-8 week age were purchased from Jackson Laboratory (Bar Harbor, Me.). Mice were maintained under specific pathogen-free conditions.\nEP4 Antagonism by CRE-PLAP Reporter Assay: SE302 cells were maintained in DMEM/F12 (50:50) (MediaTech) supplemented with 10% FBS (Tissue Culture Biologicals) plus penicillin/streptomycin. When used for assays, cells were plated in a 96-well plate at 2×10^4 cells/100 μL/well in serum-free assay medium (DMEM/F12 supplemented with 0.1% BSA plus penicillin/streptomycin) and incubated for 4-6 h. Cells were then stimulated with 3 ng/mL of PGE2 in the presence or absence of various concentrations of test compound overnight, and PLAP activity was measured by mixing 15 μL of culture supernatants with 75 μL of Lumi-phos (Lumigen, Inc.) and 60 μL of assay buffer containing 8 mmol/L MgSO4 in 0.1 mol/L carbonate-bicarbonate buffer pH11 in a new 96-well black plate and incubated for 2 h at room temperature. The intensity of luminescence, which reflected the PLAP activity in the supernatant, was quantified with an Envision 2101 Multilabel Reader. Values obtained from DMSO treated samples in the presence of PGE2 were defined as 100% of control, whereas values obtained from DMSO treated samples in the absence of PGE2 were defined as 0% of control. % of control for compound treated samples was calculated as follows: (actual reading−0% of control)/(100% of control−0% of control)×100. IC50 value for each individual experiment was calculated using GraphPad Prism 6.02 (Lake Forest, Calif.) with % of control values.\nCompounds of the present invention were assayed according to the methods as described above, and IC50 values, which may be single assay values or multiple assay average values, are summarized in Table 1. Compounds marked “ABS” show absolute stereochemistry.", "units": {"IC50": "nM"}}
{"smiles": "C[C@H](NC(=O)c1c(C(F)(F)F)nn2c1N(Cc1ccc(CCCF)cc1)CC2)c1ccc(C(=O)O)cc1", "note": "[Compound 97, (S)-4-(1-(1-(4-(3-fluoropropyl)benzyl)-6-(trifluoromethyl)-2,3-dihydro-1H-imidazo[1,2-b]pyrazole-7-carboxamido)ethyl)benzoic Acid]", "IC50": 21.8}
{"smiles": "C[C@H](NC(=O)c1c(C(F)(F)F)nn2c1N(c1ccc(C(F)(F)F)cc1)CCC2)c1ccc(C(=O)O)cc1", "note": "[Compound 51, (S)-4-(1-(2-(trifluoromethyl)-4-(4-(trifluoromethyl)phenyl)-4,5,6,7-tetrahydropyrazolo[1,5-a]pyrimidine-3-carboxamido)ethyl)benzoic Acid]", "IC50": 100}
{"smiles": "C[C@H](NC(=O)c1c(C(F)(F)F)nn2c1N(Cc1cccc(C(F)(F)F)c1)C[C@H]2CO)c1ccc(C(=O)O)cc1", "note": "[Compound 83, 4-((S)-1-((S)-3-(hydroxymethyl)-6-(trifluoromethyl)-1-(3-(trifluoromethyl)benzyl)-2,3-dihydro-1H-imidazo[1,2-b]pyrazole-7-carboxamido)ethyl)benzoic Acid]", "IC50": 0.64}
{"smiles": "C[C@H](NC(=O)c1c(C(F)(F)F)nn2c1N(Cc1cc(Br)cc(C(F)(F)F)c1)CC2)c1ccc(C(=O)O)cc1", "note": "[Compound 85, (S)-4-(1-(1-(3-bromo-5-(trifluoromethyl)benzyl)-6-(trifluoromethyl)-2,3-dihydro-1H-imidazo[1,2-b]pyrazole-7-carboxamido)ethyl)benzoic Acid]", "IC50": 0.12}
{"smiles": "C[C@H](NC(=O)c1c(C(F)(F)F)nn2c1N(Cc1ccc(C(F)(F)F)cc1)CC2)c1ccc(CC(=O)O)cc1", "note": "[Compound 27, (S)-2-(4-(1-(6-(trifluoromethyl)-1-(4-(trifluoromethyl)benzyl)-2,3-dihydro-1H-imidazo[1,2-b]pyrazole-7-carboxamido)ethyl)phenyl)acetic Acid]", "IC50": 7.08}
{"smiles": "C[C@H](NC(=O)c1c(C(F)(F)F)nn2c1N(Cc1ccc(Cl)cc1)CCC2)c1ccc(C(=O)O)cc1", "note": "[Compound 41, (S)-4-(1-(4-(4-chlorobenzyl)-2-(trifluoromethyl)-4,5,6,7-tetrahydropyrazolo[1,5-a]pyrimidine-3-carboxamido)ethyl)benzoic Acid]", "IC50": 1.53}
{"smiles": "C[C@H](NC(=O)c1c(C(F)(F)F)nn2c1N(Cc1cc(CCCF)cc(C(F)(F)F)c1)CC2)c1ccc(C(=O)O)cc1", "note": "[Compound 99, (S)-4-(1-(1-(3-(3-Fluoropropyl)-5-(trifluoromethyl)benzyl)-6-(trifluoromethyl)-2,3-dihydro-1H-imidazo[1,2-b]pyrazole-7-carboxamido)ethyl)benzoic Acid]", "IC50": 11.6}
{"smiles": "C[C@H](NC(=O)c1c(C(F)(F)F)nn2c1N(Cc1cccc(C(F)(F)F)c1)C[C@H]2COCc1ccccc1)c1ccc(C(=O)O)cc1", "note": "[Compound 80, 4-((S)-1-((S)-3-((benzyloxy)methyl)-6-(trifluoromethyl)-1-(3-(trifluoromethyl)benzyl)-2,3-dihydro-1H-imidazo[1,2-b]pyrazole-7-carboxamido)ethyl)benzoic Acid]", "IC50": 58.1}
{"smiles": "C=Cc1nn2c(c1C(=O)N[C@@H](C)c1ccc(C(=O)O)cc1)N(Cc1cccc(C(F)(F)F)c1)CC2", "note": "[Compound 92, (S)-4-(1-(1-(3-(Trifluoromethyl)benzyl)-6-vinyl-2,3-dihydro-1H-imidazo[1,2-b]pyrazole-7-carboxamido)ethyl)benzoic Acid]", "IC50": 5.43}
{"smiles": "C[C@H](NC(=O)c1c(C(F)(F)F)nn2c1N(Cc1cccc(CCCF)c1)CC2)c1ccc(C(=O)O)cc1", "note": "[Compound 96, (S)-4-(1-(1-(3-(3-Fluoropropyl)benzyl)-6-(trifluoromethyl)-2,3-dihydro-1H-imidazo[1,2-b]pyrazole-7-carboxamido)ethyl)benzoic Acid]", "IC50": 0.866}
{"smiles": "O=C(O)c1ccc(C2(NC(=O)c3c(C(F)(F)F)nn4c3N(Cc3ccc(Cl)cc3)CC4)CC2)cc1", "note": "[Compound 30, 4-(1-(1-(4-chlorobenzyl)-6-(trifluoromethyl)-2,3-dihydro-1H-imidazo[1,2-b]pyrazole-7-carboxamido)cyclopropyl)benzoic Acid]", "IC50": 1.35}
